Peptide text beside a SMILES is read from it.
What was measured:
SK-Hep1 cells = test: Apoptosis by annexin V-FITC staining, flow cytometry; assay type: cell-based; conditions: calpain inhibitor 2 at 20 μM; endogenous wildtype p53
Method: (§1) P53 was administered to the cells by the use of the replication defective adenoviral vector ACN53 described in Wills, et al., supra. The effect of varying concentrations of rAd-p53 (from […] to 2×10^9 rAd-p53 particles/ml of solution) was investigated in combination with CI-1 in a range of 5–20 μm. The effects of individual and combination treatment was determined in the in DLD1, RKO, HLF and SK-Hep1 cells was investigated in substantial accordance with the teaching of Examples 2 and 3 herein. The percentage of apoptotic cells was determined at 17 hours post treatment (with the exception of U87 cells (24 hours) and HeLa cells (68 hours)) with annexin V positive staining. The results are presented in graphical format in FIG. 3 of the attached drawings. In brief, the results were as follows:
(§2) The effect of an inhibitor of μ-calpains, CI-1 (N-acetyl-leu-leu-norleucinal), was investigated for its ability to enhance p53 mediated apoptosis in tumor cell lines having p53+ and p53− status listed in Table1. Each cell line was treated with 5–50 μM CI-1 for 17–26 hours. To detect a G0/G1 block, bromodeoxyuridine (BrdU) incorporation followed by flow cytometric analysis was done 17 hours post-treatment as described in Example 4 herein. […] The results of these experiments are presented in FIGS. 1 and 2 of the attached drawings. In FIG. 1, each point on the graph represents percentage annexin V positive after background percentage (DMF alone) was subtracted.
(§3) An aliquot containing approximately 1×10^6 cells of each type was placed in a T-225 flask. The effect of varying concentrations of rAd-p53 (from 1×10^7 to 2×10^9ACN53 particles/ml of solution) was investigated in combination with CI-1 in a range of 5–20 μM. In each instance, the cell line was infected with 1×10^7–1×10^9 particles/ml of cell culture with the ACN53 using the empty cassette virus (ZZCB) as a control. In each instance, the cells were exposed to the virus for a period of one hour. At the end of this time, the virus was washed off the from the cells and fresh media containing an appropriate concentration of CI-1 was added.
CI-1 was obtained from Boehringer-Mannheim Biochemicals (Indianapolis, Ind.). The CI-1 containing media was prepared as follows. CI-1 was diluted in dimethylformamide (DMF) to a concentration of 33.3 μM/μl. The CI-1 solution in DMF was added to achieve a final concentration in the media of 5 or 10 μM final concentration of CI-1. An equivalent volume of DMF alone was added to the control cells. Calpain inhibitor 2, N-acetyl-leu—leu-methioninal (Boehringer Mannheim) was added to cell lines at 5–50 μM final concentration with or without rAd-p53 for 26 hours.
At a time of 17 (or 26 hours) post infection, the percentage of cells undergoing apoptosis was determined by convential apoptotic markers. Apoptosis was monitored visually by observing blebbed nuclei characteristic of apoptosis, by propidium iodide staining (using propidium iodide commercially available from Molecular Probes, Inc.) followed by flow cytometric analysis to look for subgenomic populations of cells, and by labeling cells with annexin V-FITC (commercially available from Boehringer Mannheim) in substantial accordance with the instructions provided by the manufacturer, followed by flow cytometric analysis on a FACScan Flow Cytometer (commercially available from Becton Dickinson).

HLF cells = test: as above; assay type: cell-based; conditions: calpain inhibitor 2 at 10 μM
Method: as §1
To quantitate the increased efficacy of rAd-p53 induced cell killing in tumor cell lines in response to CI-1 treatment, HLF cells were infected with increasing concentrations of rAd-p53 with or without 10 μM CI-1, and assayed for percentage apoptotic cells by annexin V-FITC staining 42 hours post-treatment in substantial accordance with the teaching of Example 3 herein. […] No increase in annexin V-FITC positive cells was detected at 1×10^5 particles/ml rAd-p53 with or without 10 μM CI-1. At 1×10^6 particles/ml rAd-p53, the percentage apoptotic cells without CI-1 was 14%, while 40% of annexin V positive cells was detected when cell were treated with 10 μM CI-1. At a concentration of 1×10^7 ACN53 particles/ml, 17% annexin V positive without and 63% with 10 μM CI-1 was detected. At 1×10^8 particles/ml, 52% were annexin V positive without and 70% positive with inhibitor treatment. At a dose of 1×10^9 particles of rAd-p53, however, the percentage annexin V positive was about the same for both 77% without and 74% with 10 μM CI-1. […] concentration of rAd-p53 was sufficient to induce approximately 50% cell death, while only a 1×10^7 particle/ml concentration rAd-p53 was needed to induce approximately the same percentage of cell death when 10 μM CI-1 as added.
as §2, §3
HLF cells were infected at increasing log concentrations of rAd-p53 ranging from 1×10^5 to 1×10^9 for one hour at which time virus was washed off and replaced with fresh media (viral infection with no treatment) or with 10 μM calpain inhibitor 1. Cells were assayed for apoptosis by annexin V-FITC staining at 24 and 42 hours post-infection.
CI-1 was obtained from Boehringer-Mannheim Biochemicals (Indianapolis, Ind.). The CI-1 containing media was prepared as follows. CI-1 was diluted in dimethylformamide (DMF) to a concentration of 33.3 μM/μl. […]

CSCC[C@@H](C=O)NC(=O)[C@H](CC(C)C)NC(=O)[C@H](CC(C)C)NC(C)=O [CI-2, N-acetyl-leu—leu-methioninal] (Ac-Leu-Leu-Met-aldehyde)
increase in annexin V-FITC positive cells (SK-Hep1 cells): no significant increase | effect on the induction of apoptosis in combination with rAd-p53 (HLF cells): no significant effect

— patent publication US7001770B1, “Calpain inhibitors and their applications” (priority 1998, dated 2006)
